This is an account of results in patent US8476264B2, “N-(3-(2-amino-6,6-difluoro-4,4A,5,6,7,7A-hexahydro-cyclopenta[E][1,3]oxazin-4-yl)-phenylamides as BACE1 inhibitors” (Hoffmann-La Roche Inc., priority 2011, dated 2013).

The structures appear in SMILES notation.

T1 sequence (P56817 46-501): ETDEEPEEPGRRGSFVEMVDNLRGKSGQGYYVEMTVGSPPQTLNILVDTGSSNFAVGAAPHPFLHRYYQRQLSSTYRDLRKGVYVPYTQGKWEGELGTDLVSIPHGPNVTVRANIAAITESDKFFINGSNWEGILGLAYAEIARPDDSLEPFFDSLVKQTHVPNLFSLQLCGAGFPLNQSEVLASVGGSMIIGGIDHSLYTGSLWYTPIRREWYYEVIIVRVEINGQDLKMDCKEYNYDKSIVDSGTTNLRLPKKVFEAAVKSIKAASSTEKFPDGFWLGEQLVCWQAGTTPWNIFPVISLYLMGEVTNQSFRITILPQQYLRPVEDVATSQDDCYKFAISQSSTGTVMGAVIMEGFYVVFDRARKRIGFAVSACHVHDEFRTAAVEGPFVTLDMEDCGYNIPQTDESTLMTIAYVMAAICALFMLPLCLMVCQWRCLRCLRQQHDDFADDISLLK

This experiment concerns the target T1, BACE1 (Homo sapiens, UniProt P56817).
T1 construct: Human HEK293 cells which are stably transfected with a vector expressing a cDNA of the human APP wt gene (APP695); endogenous in cells; host or cells: HEK293 stably transfected with human APP695 wt
Nature of the experiment: Cellular Aβ-lowering assay (Aβ40 ELISA). The format is cell-based. The settings on record: HEK293 cells stably expressing human APP wt (APP695); Aβ40 in supernatant after 18-20 hrs; read-out: BACE1 cell act. Aβ40 IC50. The protocol:
Cellular Aβ-Lowering Assay:
Human HEK293 cells which are stably transfected with a vector expressing a cDNA of the human APP wt gene (APP695) were used to assess the potency of the compounds in a cellular assay. The cells were seeded in 96-well microtiter plates in cell culture medium (Iscove, plus 10% (v/v) fetal bovine serum, glutamine, penicillin/streptomycin) to about 80% confluence and the compounds were added at a 10× concentration in 1/10 volume of medium without FCS containing 8% DMSO (final concentration of DMSO was kept at 0.8% v/v). After 18-20 hrs incubation at 37° C. and 5% CO2 in a humidified incubator the culture supernatant was harvested for the determination of Aβ40 concentrations. 96 well ELISA plates (e.g., Nunc MaxiSorb) were coated with monoclonal antibody which specifically recognize the C-terminal end of Aβ40 (Brockhaus et al., NeuroReport 9, 1481-1486; 1998). After blocking of non-specific binding sites with e.g. 1% BSA and washing, the culture supernatants were added in suitable dilutions together with a horseradish peroxidase-coupled Aβ detection antibody (e.g., antibody 4G8, Senetek, Maryland Heights, Mo.) and incubated for 5 to 7 hrs. Subsequently the wells of the microtiter plate were washed extensively with Tris-buffered saline containing 0.05% Tween 20 and the assay was developed with tetramethylbenzidine/H2O2 in citric acid buffer. After stopping the reaction with one volume 1 N H2SO4 the reaction was measured in an ELISA reader at 450 nm wavelength. The concentrations of Aβ in the culture supernatants were calculated from a standard curve obtained with known amounts of pure Aβ peptide.
For `NC1=N[C@](CF)(c2cc(NC(=O)c3cnc(C(F)(F)F)cn3)ccc2F)[C@H]2CC(F)(F)C[C@H]2O1` [Example 28, 5-Trifluoromethyl-pyrazine-2-carboxylic acid [(S)-3-((1R,2R)-2-amino-6,6-difluoro-4-fluoromethyl-4,4a,5,6,7,7a-hexahydro-cyclopenta[e][1,3]oxazin-4-yl)-4-fluoro-phenyl]-amide], the IC50 stood at 16 nM.
In the case of `CC(F)(F)c1cnc(C(=O)Nc2ccc(F)c([C@@]3(CF)N=C(N)O[C@@H]4CC(F)(F)C[C@@H]43)c2)cn1` [Example 29, 5-(1,1-Difluoro-ethyl)-pyrazine-2-carboxylic acid [(S)-3-((1R,2R)-2-amino-6,6-difluoro-4-fluoromethyl-4,4a,5,6,7,7a-hexahydro-cyclopenta[e][1,3]oxazin-4-yl)-4-fluoro-phenyl]-amide], the IC50 came to 36 nM.
In the case of `COc1cnc(C(=O)Nc2ccc(F)c([C@@]3(CF)N=C(N)O[C@@H]4CC(F)(F)C[C@@H]43)c2)cn1` [Example 30, 5-Methoxy-pyrazine-2-carboxylic acid [(S)-3-((1R,2R)-2-amino-6,6-difluoro-4-fluoromethyl-4,4a,5,6,7,7a-hexahydro-cyclopenta[e][1,3]oxazin-4-yl)-4-fluoro-phenyl]-amide], the IC50 is 7.6 nM.
With `NC1=N[C@](CF)(c2cc(NC(=O)c3ncc(C(F)(F)F)cn3)ccc2F)[C@H]2CC(F)(F)C[C@H]2O1` [Example 31, 5-Trifluoromethyl-pyrimidine-2-carboxylic acid [(S)-3-((1R,2R)-2-amino-6,6-difluoro-4-fluoromethyl-4,4a,5,6,7,7a-hexahydro-cyclopenta[e][1,3]oxazin-4-yl)-4-fluoro-phenyl]-amide], the IC50 is 36 nM.
On to `NC1=N[C@](CF)(c2cc(NC(=O)c3ncc(Cl)cn3)ccc2F)[C@H]2CC(F)(F)C[C@H]2O1` [Example 32, 5-Chloro-pyrimidine-2-carboxylic acid [(S)-3-((1R,2R)-2-amino-6,6-difluoro-4-fluoromethyl-4,4a,5,6,7,7a-hexahydro-cyclopenta[e][1,3]oxazin-4-yl)-4-fluoro-phenyl]-amide], for which the IC50 turned out to be 7.9 nM.
Turning to `Cc1nc(C(=O)Nc2ccc(F)c([C@@]3(CF)N=C(N)O[C@@H]4CC(F)(F)C[C@@H]43)c2)co1` [Example 33, 2-Methyl-oxazole-4-carboxylic acid [(S)-3-((1R,2R)-2-amino-6,6-difluoro-4-fluoromethyl-4,4a,5,6,7,7a-hexahydro-cyclopenta[e][1,3]oxazin-4-yl)-4-fluoro-phenyl]-amide], the IC50 came out at 4.8 nM.
Consider `NC1=N[C@](CF)(c2cc(NC(=O)c3nn(C(F)F)cc3Cl)ccc2F)[C@H]2CC(F)(F)C[C@H]2O1` [Example 35, 4-Chloro-1-difluoromethyl-1H-pyrazole-3-carboxylic acid [(S)-3-((1R,2R)-2-amino-6,6-difluoro-4-fluoromethyl-4,4a,5,6,7,7a-hexahydro-cyclopenta[e][1,3]oxazin-4-yl)-4-fluoro-phenyl]-amide], for which the IC50 was 3 nM.
With `NC1=N[C@@](c2cc(NC(=O)c3ccc(Cl)cn3)ccc2F)(C(F)F)[C@H]2CC(F)(F)C[C@H]2O1` [Example 37, 5-Chloro-pyridine-2-carboxylic acid [(S)-3-((1R,2R)-2-amino-4-difluoromethyl-6,6-difluoro-4,4a,5,6,7,7a-hexahydro-cyclopenta[e][1,3]oxazin-4-yl)-4-fluoro-phenyl]-amide] the figure was 17 nM; with `NC1=N[C@@](c2cc(NC(=O)c3cnc(OCF)cn3)ccc2F)(C(F)F)[C@H]2CC(F)(F)C[C@H]2O1` [Example 38, 5-Fluoromethoxy-pyrazine-2-carboxylic acid [(S)-3-((1R,2R)-2-amino-4-difluoromethyl-6,6-difluoro-4,4a,5,6,7,7a-hexahydro-cyclopenta[e][1,3]oxazin-4-yl)-4-fluoro-phenyl]-amide], 17 nM; with `NC1=N[C@@](c2cc(NC(=O)c3cnc(Cl)cn3)ccc2F)(C(F)F)[C@H]2CC(F)(F)C[C@H]2O1` [Example 39, 5-Chloro-pyrazine-2-carboxylic acid [(S)-3-((1R,2R)-2-amino-4-difluoromethyl-6,6-difluoro-4,4a,5,6,7,7a-hexahydro-cyclopenta[e][1,3]oxazin-4-yl)-4-fluoro-phenyl]-amide], 1400 nM.
As for `NC1=N[C@@](c2cc(NC(=O)c3cnc(C(F)F)cn3)ccc2F)(C(F)F)[C@H]2CC(F)(F)C[C@H]2O1` [Example 40, 5-Difluoromethyl-pyrazine-2-carboxylic acid [(S)-3-((1R,2R)-2-amino-4-difluoromethyl-6,6-difluoro-4,4a,5,6,7,7a-hexahydro-cyclopenta[e][1,3]oxazin-4-yl)-4-fluoro-phenyl]-amide], the IC50 was determined as 44 nM.
As to `NC1=N[C@@](c2cc(NC(=O)c3cnc(OC(F)F)cn3)ccc2F)(C(F)F)[C@H]2CC(F)(F)C[C@H]2O1` [Example 41, 5-Difluoromethoxy-pyrazine-2-carboxylic acid [(S)-3-((1R,2R)-2-amino-4-difluoromethyl-6,6-difluoro-4,4a,5,6,7,7a-hexahydro-cyclopenta[e][1,3]oxazin-4-yl)-4-fluoro-phenyl]-amide], the 50% inhibitory concentration (IC50) was 7 nM.
With `NC1=N[C@@](c2cc(NC(=O)c3nn(C(F)F)cc3Cl)ccc2F)(C(F)F)[C@H]2CC(F)(F)C[C@H]2O1` [Example 43, 4-Chloro-1-difluoromethyl-1H-pyrazole-3-carboxylic acid [(S)-3-((1R,2R)-2-amino-4-difluoromethyl-6,6-difluoro-4,4a,5,6,7,7a-hexahydro-cyclopenta[e][1,3]oxazin-4-yl)-4-fluoro-phenyl]-amide] the figure was 5.5 nM.
As for `Cc1nc(C(=O)Nc2ccc(F)c([C@@]3(C(F)F)N=C(N)O[C@@H]4CC(F)(F)C[C@@H]43)c2)co1` [Example 44, 2-Methyl-oxazole-4-carboxylic acid [(S)-3-((1R,2R)-2-amino-4-difluoromethyl-6,6-difluoro-4,4a,5,6,7,7a-hexahydro-cyclopenta[e][1,3]oxazin-4-yl)-4-fluoro-phenyl]-amide], the IC50 amounted to 42 nM.
For the molecule `N#Cc1ccc(C(=O)Nc2ccc(F)c([C@]3(CF)N=C(N)O[C@@]4(CF)CC(F)(F)C[C@H]43)c2)nc1` [Example 45, 5-Cyano-pyridine-2-carboxylic acid [3-((1S,7aS)-2-(R)-amino-6,6-difluoro-4,7a-bis-fluoromethyl-4,4a,5,6,7,7a-hexahydro-cyclopenta[e][1,3]oxazin-4-yl)-4-fluoro-phenyl]-amide], the IC50 is 11100 nM.
With `N#Cc1ccc(C(=O)Nc2ccc(F)c([C@@]3(CF)N=C(N)O[C@]4(CF)CC(F)(F)C[C@@H]43)c2)nc1` [Example 46, 5-Cyano-pyridine-2-carboxylic acid [3-((1R,7aR)-2-(S)-amino-6,6-difluoro-4,7a-bis-fluoromethyl-4,4a,5,6,7,7a-hexahydro-cyclopenta[e][1,3]oxazin-4-yl)-4-fluoro-phenyl]-amide] the figure was 27 nM; with `NC1=N[C@](CF)(c2cc(NC(=O)c3ccc(Cl)cn3)ccc2F)[C@H]2CC(F)(F)C[C@@]2(CF)O1` [Example 47, 5-Chloro-pyridine-2-carboxylic acid [3-((1R,7aR)-2-(S)-amino-6,6-difluoro-4,7a-bis-fluoromethyl-4,4a,5,6,7,7a-hexahydro-cyclopenta[e][1,3]oxazin-4-yl)-4-fluoro-phenyl]-amide], 85 nM.

The IC50 is the midpoint of a concentration-inhibition curve.
